The nature of data set [1]: Solubility in water. Format: physicochemical.
In data set [2] the test system is Mus musculus. Briefly: Antiinflammatory activity in mouse model of LPS-induced acute lung injury assessed as reduction in BALF protein at 5 mg/kg, ip administered immediately or 6 hrs after LPS stimulation. In kind it is functional. Details: scale not given: the % may be the effect or the level left.
The test system of data set [3] is Mus musculus. Briefly: Antiinflammatory activity in mouse model of LPS-induced acute lung injury assessed as reduction in total cell count in BALF at 38 mg/kg, iv. Format: functional, organism-based.
Data set [4] deals with Mus musculus. Nature of the data set: Antiinflammatory activity in mouse model of LPS-induced acute lung injury assessed as reduction in total cell count in BALF at 64 mg/kg, iv. In kind it is functional, organism-based.
Data set [5] deals with Mus musculus. Nature of the data set: Antiinflammatory activity in mouse model of LPS-induced acute lung injury assessed as reduction in BALF protein at 38 mg/kg, iv. In kind it is functional, organism-based.
The subject of data set [6] is Mus musculus. Nature of the data set: Antiinflammatory activity in mouse model of LPS-induced acute lung injury assessed as reduction in BALF protein at 64 mg/kg, iv. Format: functional, organism-based.
A short description of data set [7]: Toxicity in multidrug-resistant Pseudomonas aeruginosa infected mouse model of pneumonia assessed as improvement in animal survival at 38 mg/kg, sc administered once daily for 6 days. In kind it is organism-based. Conditions: in vivo, 144 h, time 6 day.
Data set [8] is described as follows: Toxicity in multidrug-resistant Pseudomonas aeruginosa infected mouse model of pneumonia assessed as improvement in animal survival at 64 mg/kg, sc administered once daily for 6 days. Format: organism-based. The following applies: in vivo, 144 h, time 6 day.
The nature of data set [9]: Terminal half-life in Sprague-Dawley rats at 1.4 mg/kg, iv. Format: ADME, organism-based. Conditions: rat, in vivo, read-out: beta t1/2 (converted).
The nature of data set [10]: Volume of distribution in Sprague-Dawley rats at 1.4 mg/kg, iv. The following applies: rat, in vivo. Format: ADME, organism-based.
The nature of data set [11]: Clearance in Sprague-Dawley rats at 1.4 mg/kg, iv. Format: ADME, organism-based. The following applies: rat, in vivo.

Usually solubility stands for the dissolved amount per volume that the medium holds. As a reminder, the Vd is the apparent volume that relates the amount in the body to the concentration in plasma or blood. One may read the clearance as the rate of elimination divided by the concentration.

Active and inactive are the calls of the source. No cut-off for these calls is given here.

Turning to `Cc1ccc(-c2cc(=O)[nH]c3c(-c4ccc(Cl)cc4)c(Cc4ccccc4)nn23)c(OP(=O)([O-])[O-])c1.[Na+].[Na+]`, in data set [1], the solubility was greater than 50 µM.

`C[C@@H]1C[C@H]2[C@@H]3CCC4=CC(=O)C=C[C@]4(C)[C@@]3(F)[C@@H](O)C[C@]2(C)[C@@]1(O)C(=O)CO` [DEXAMETHASONE]: in the data set on Mus musculus [2], the Activity worked out at 37%.

Molecule `Cc1ccc(-c2cc(=O)[nH]c3c(-c4ccc(Cl)cc4)c(Cc4ccccc4)nn23)c(OP(=O)(O)O)c1` came in with a solubility in data set [1] greater than 50 µM.

In [1], `Cc1ccc(-c2c[nH]c3c(-c4ccc(Cl)cc4)c(Cc4ccccc4)nn3c2=O)c(OP(=O)([O-])[O-])c1.[Na+].[Na+]` had a solubility greater than 50 µM. In addition, the outcome in the data set with Mus musculus [3], in the data set on Mus musculus [4], in the data set on Mus musculus [5] and in the data set with Mus musculus [6] was Active. The Activity entry in [7] and in data set [8] was “Non-Toxic” each time.

`NCCCC[C@H](N)C(=O)Oc1cc([N+](=O)[O-])ccc1-c1cc(=O)[nH]c2c(-c3ccc(Cl)cc3)c(Cc3ccccc3)nn12`: the half-life in [9] is 10.9 h. In addition, the Vd in data set [10] amounted to 0.383 L/kg. In data set [11], the clearance was 0.417 mL/min/kg.

In data set [1], `Cc1ccc(-c2c[nH]c3c(-c4ccc(Cl)cc4)c(Cc4ccccc4)nn3c2=O)c(O)c1` had a solubility of less than 1 µM.

In [1], `O=c1c(-c2ccc(F)cc2OP(=O)([O-])[O-])c[nH]c2c(-c3ccc(Cl)cc3)c(Cc3ccccc3)nn12.[Na+].[Na+]` came in with a solubility greater than 50 µM.

Values taken from ChEMBL document CHEMBL5052829, “Arf6 inhibitors and related methods” (2021).
